Data as given in patent publication US20160129003A1, “Pharmaceutical Combinations” (Novartis AG, priority 2013, published 2016).
Read-outs that look alike come from different tables or passages of the source.

Key:
[1] = test system: primary human lung cancer LU1656 xenograft; experiment: In-vivo antitumor activity, subcutaneous LU1656 xenograft, first and second phase (Example 3); details: for T-C (days) at 500 mm^3 / T/C (%) / Tumor Size (mm^3) at Day 50 Post Tumor Implantation / Tumor Size (mm^3) at Day 61 Post Tumor Implantation: p.o.; for Tumor Size (mm^3) at Day 50 Post Tumor Implantation / Tumor Size (mm^3) at Day 61 Post Tumor Implantation: Mean ± SEM
Method: The in-vivo antitumor activity […] of the phosphatidylinositol-3-kinase inhibitor compound COMPOUND B in combination with either the anaplastic lymphoma kinase inhibitor COMPOUND D or crizotinib and (b) of the phosphatidylinositol-3-kinase inhibitor compound COMPOUND C in combination with either the anaplastic lymphoma kinase inhibitor COMPOUND D or crizotinib is evaluated in the treatment of subcutaneous primary human lung cancer LU1656 xenograft models in nu/nu mice.
(§1) Experiments are performed with female Mus Musculus nu/nu mice (Vital River Laboratories, China) approximately 7-8 weeks of age and 19-24 g body weight at treatment start. All animals are housed in laminar flow rooms at constant temperature (approximately 20-26° C.) and humidity (approximately 40-70%) with 4 or 5 animals in each cage. All animals have free access to irradiation sterilized dry granule food and sterile drinking water.
Animals are divided into 9 groups.
COMPOUND B in form of its monohydrochloride salt (Novartis) is obtained as a powder and stored at −20° C. 99.1 mg of COMPOUND B monohydrochoride (equivalent to 91 mg of free base) is formulated in 6.5 ml of 1% Tween 80 and 6.5 ml 1% methylcellulose (M-0512). COMPOUND B is first sonicated in the 1% Tween 80 and then mixed with the 1% methylcellulose and then stirred for 1 hour and sonicated for 5 minutes to formulate a solution having a COMPOUND B concentration of 7 mg/ml. For this experiment, the COMPOUND B monohydrochloride salt is referred to as “COMPOUND B”.
COMPOUND C is obtained as a powder and stored at 4° C. A vehicle is formulated by dissolving 2 g of CMC sodium salt powder low density in 198 ml of sterile water, mixing using a magnetic beater and heating (about 50° C.), adding 1 ml Tween 80, adjusting the pH to 7.6 using NaOh/HCl, and completing the volume to 200 ml. 84 mg of COMPOUND C is suspended in 3.5 ml of this vehicle and stirred/vortexed until homogenous; another 3.5 ml of this vehicle is added and homogenized; and another 7 ml of this vehicle is added and homogenized. To reduce particle size, this solution is sonicated for 1 hour using a sonication probe while cooling in an ice bath. The solution is having a COMPOUND C concentration of 6 mg/ml.
(§2) COMPOUND D in the form of its salt (Novartis) is obtained as a powder and stored at −20° C. 388 mg of COMPOUND D salt (equivalents to 330 mg of free base) is suspended in 33 ml of 0.5% methylcellulose (M-0512) and 0.5% Tween, is sonicated and then is vortexed to formulate a solution having a COMPOUND D concentration of 10 mg/ml. Additionally, 11 ml of this 10 mg/ml concentration solution is diluted with 11 ml 0.5% methylcellulose and 0.5% Tween 80 and vortexted to form a second solution having a COMPOUND D concentration of 5 mg/ml. For this experiment, the COMPOUND D salt is referred to as “COMPOUND D”.
COMPOUND C is obtained as a powder and stored at 4° C. A vehicle is formulated by dissolving 2 g of CMC sodium salt powder low density in 198 ml of sterile water, mixing using a magnetic beater and heating (about 50° C.), adding 1 ml Tween 80, adjusting the pH to 7.6 using NaOh/HCl, and completing the volume to 200 ml.

[2] = test system: primary human lung cancer LUF1656 xenograft; assay type: in vivo; details: PO, QD × 21 Days; for T/C (%): Day 21; for Tumor Size (mm^3) at Day 21 of Treatment: Mean ± SEM
Method: The in-vivo antitumor activity of the phosphatidylinositol-3-kinase inhibitor compound COMPOUND B in combination with either the anaplastic lymphoma kinase inhibitor COMPOUND D or crizotinib is evaluated in the treatment of subcutaneous primary human lung cancer LUF1656 xenograft models in nu/nu mice.
as §1, with “water. Animals are divided into groups of 10 animals per group.” for “water.”
COMPOUND B in form of its monohydrochloride salt (Novartis) is obtained as a powder and stored at −20° C. 323.3 mg of COMPOUND B monohydrochoride (equivalent to 294 mg of free base) is formulated in 21 ml of 1% Tween 80 and 21 ml 1% methylcellulose (M-0512). COMPOUND B is first sonicated in the 1% Tween 80 and then mixed with the 1% methylcellulose and then stirred for 1 hour and sonicated for 5 minutes to formulate a solution having a COMPOUND B concentration of 7 mg/ml. For this experiment, the COMPOUND B monohydrochloride salt is referred to as “COMPOUND B”.
as §2
Crizotinib is obtained as a powder and stored at −20° C. 220 mg of crizotinib is suspended in 22 ml 0.5% methylcellulose (MC) and sonicated to form a solution having a crizotinib concentration of 10 mg/ml. This solution can be stored at 4° C. for 1 week and protected from light.
Tumor fragments from stock mice inoculated with LUF1656 primary human lung cancer cells (Crown Bio, China) are harvested and used for inoculation into the nu/nu mice. Each mouse is inoculated subcutaneously at the right flank with one tumor fragment (2-3 mm in diameter) for tumor development. The treatments are started when mean tumor size reach approximately 135 mm^3. Animals are routinely monitored and body weight measured twice weekly. Death and observed clinical signs are recorded on the basis of the number of animals within each subset. Animals observed to be in a continuing deteriorating condition or for which the tumor size of individual animal exceeds 1/10 of the body weight are euthanized prior to death or before comatose.
Tumor size is measured twice weekly in two dimensions using a caliper and the volume is expressed in mm^3 using the formula: V=0.5 a×b^2, wherein a and b are the long and short diameters of the tumor respectively. The tumor size is then used for calculation of both T-C and T/C values. T-C is calculated with T as the time (days) required for the mean tumor size of the treatment group to reach a predetermined size (e.g., 400 mm^3) and C is the time (in days) for the mean tumor size of the control group to reach the same size. T/C value (in percent is an indication of the anti-tumor effectiveness; T and C are the mean volume of the treated and control groups, respectively, on a given day.
Summary statistics are provided for the tumor volume of each group at each time point.

[3] = first phase, Group 3: COMPOUND D 50 mg/kg, QD × 40
[4] = second phase, Group 8: COMPOUND D 25 mg/kg, QD × 40
[5] = first phase, Group 4: COMPOUND C 30 mg/kg, QD × 35
[6] = second phase, Group 9: Crizotinib 50 mg/kg, QD × 40

## Cc1cc(Nc2ncc(Cl)c(Nc3ccccc3S(=O)(=O)C(C)C)n2)c(OC(C)C)cc1C1CCNCC1 [COMPOUND D, 5-Chloro-N2-(2-isopropoxy-5-methyl-4-piperidin-4-yl-phenyl)-N4-[2-(propane-2-sulfonyl)-phenyl]-pyrimidine-2,4-diamine]
[1]; COMPOUND D at 25 mg/kg as a single agent
  antitumor activity against the LU1656 xenograft model (summary): significant antitumor activity
[1]; COMPOUND D at 50 mg/kg as a single agent
  antitumor activity against the LU1656 xenograft model (summary): significant antitumor activity
[1]; [3]
  T-C (days) at 500 mm^3: 40 days
  Tumor Size (mm^3) at Day 50 Post Tumor Implantation: 218.2 mm^3
[1]; first phase, Group 3: COMPOUND D 50 mg/kg, QD × 40, Day 50
  T/C (%): 10.4%
[1]; [4]
  T-C (days) at 500 mm^3: 34 days
  Tumor Size (mm^3) at Day 61 Post Tumor Implantation: 307.4 mm^3
[1]; second phase, Group 8: COMPOUND D 25 mg/kg, QD × 40, Day 61
  T/C (%): 14.6%
[1]; second phase, COMPOUND D 25 mg/kg monotherapy, Day 64 to Day 82, p<0.05 or p<0.01 at different days
  antitumor activity compared to Crizotinib (50 mg/kg) monotherapy: significantly improved
[2]; Group 7: COMPOUND D 25 mg/kg
  T/C (%): 16.1%
  Tumor Size (mm^3) at Day 21 of Treatment: 194.9 mm^3
[2]; Group 8: COMPOUND D 50 mg/kg
  T/C (%): 17.6%
  Tumor Size (mm^3) at Day 21 of Treatment: 213.6 mm^3

## Cc1nc(NC(=O)N2CCC[C@H]2C(N)=O)sc1-c1ccnc(C(C)(C)C(F)(F)F)c1 [COMPOUND C, (S)-Pyrrolidine-1,2-dicarboxylic acid 2-amide 1-({4-methyl-5-[2-(2,2,2-trifluoro-1,1-dimethyl-ethyl)-pyridin-4-yl]-thiazol-2-yl}-amide)]
[1]; COMPOUND C at 30 mg/kg as a single agent
  antitumor activity against the LU1656 xenograft model (summary): significant antitumor activity
[1]; [5]
  T-C (days) at 500 mm^3: 11 days
  Tumor Size (mm^3) at Day 50 Post Tumor Implantation: 752.5 mm^3
[1]; first phase, Group 4: COMPOUND C 30 mg/kg, QD × 35, Day 50
  T/C (%): 36.0%

## Nc1cc(C(F)(F)F)c(-c2cc(N3CCOCC3)nc(N3CCOCC3)n2)cn1 [COMPOUND B, 5-(2,6-di-morpholin-4-yl-pyrimidin-4-yl)-4-trifluoromethyl-pyridin-2-ylamine]
[2]; Group 3: COMPOUND B 35 mg/kg
  T/C (%): 30.1%
  Tumor Size (mm^3) at Day 21 of Treatment: 365.4 mm^3

## C[C@@H](Oc1cc(-c2cnn(C3CCNCC3)c2)cnc1N)c1c(Cl)ccc(F)c1Cl [Crizotinib, reference compound]
[1]; [6]
  T-C (days) at 500 mm^3: 14 days
  Tumor Size (mm^3) at Day 61 Post Tumor Implantation: 520.4 mm^3
[1]; second phase, Group 9: Crizotinib 50 mg/kg, QD × 40, Day 61
  T/C (%): 24.7%
[1]; second phase, Crizotinib 50 mg/kg, PO, QD×40, Day 47 to Day 61 after tumor implantation, p<0.01 or p<0.001 at different days
  antitumor activity compared with vehicle control: significant antitumor activity
[2]; Group 6: Crizotinib 50 mg/kg
  T-C (days) at 400 mm^3: 7 days
  T/C (%): 37.1%
[2]; Group 6: Crizotinib 50 mg/kg, from 9 animals' data (one outlier removed)
  Tumor Size (mm^3) at Day 21 of Treatment: 450.8 ± mm^3
